{"source": "patent US20090010891A1", "about": "“Sepsis Treatment Agent” (Toa Pharmaceutical Co., Ltd., priority 2007, published 2009)", "tested_on": "sepsis patients", "test": "treatment course of sepsis in blood culture positive patients", "format": "in vivo, human", "conditions": "observation for 1 year; for Cured / Deaths: number of cases, Bio3 1 g 3 times a day where given", "protocol": "The sepsis treatment agent was administered 3 times a day at 1 g each time using a live bacteria formulation of a mix of the three bacteria. The patients were hospitalized in a psychiatric hospital. The patients were blood culture positive which is a predictor for bacterial translocation. In 4 cases, imipenem/cilastatin (IPM/CS) was administered, and in 4 cases, latamoxef (LMOX) was given. During the observation period, CRP (C reactive protein) increased slightly, and E. coli and enterococcus and the like were detected by culturing blood. After observation for 1 year, two cases died from both groups, and two cases were cured.", "data": [{"smiles": "C[C@@H](O)[C@H]1C(=O)N2C(C(=O)O)=C(SCCN=CN)C[C@H]12", "note": "[Imipenem, imipenem/cilastatin]", "values": [{"measurement": "Cured", "result": 2}, {"measurement": "Deaths", "result": 2}, {"measurement": "death rate (%)", "result": 50, "unit": "%"}]}, {"smiles": "CO[C@@]1(NC(=O)C(C(=O)O)c2ccc(O)cc2)C(=O)N2C(C(=O)O)=C(CSc3nnnn3C)CO[C@@H]21", "note": "(some centres unmarked) [Latamoxef, latamoxef]", "values": [{"measurement": "Cured", "result": 2}, {"measurement": "Deaths", "result": 2}, {"measurement": "Cured", "setting": "listed as latamoxef", "result": "two"}, {"measurement": "Deaths", "setting": "listed as latamoxef", "result": "two"}, {"measurement": "death rate (%)", "result": 50, "unit": "%"}]}]}
